Source: US20010012631A1, “Plant clonal lines and plants having elevated secondary metabolite levels” (University of Massachusetts Medical Center, a Massachusetts …, priority 1997, published 2001)
Where two headings read alike, the source gives them in different places.

How the values were obtained:
oregano clonal line OM-8 [1] = format: cell-based; details: 30 days
Experimental: (§1) Samples of Pseudomonas-treated and untreated control shoots from each line were assayed for rosmarinic acid content and proline content. Rosmarinic acid was extracted from 50 mg of fresh shoot tissue using 2 ml of 50% (v/v) methanol and incubating for 1 hour at 55° C. One ml of the methanol extract was diluted 1:18 and the absorbance of the diluted extract was measured at 333 nm in a Genesys spectrophotometer (Spectronic Instruments, Rochester, N.Y.). The concentration of RA in the extract was calculated using an extinction coefficient of ε333=19,000 τmol^−1cm^−1. Values for the concentration of RA for each treatment/clonal line shown in the Tables and Figures of this application are the average of at least 5 separate extracts. Total rosmarinic acid content was expressed as % g/g fresh weight (FW) of tissue.
(§2) Oregano lines 0-1, 0-4, and 0-5 of Examples 1 and 2 were tested again for cross-tolerance to A2C. Clonal lines OM-1, and OM-8 of Example 1 were also tested for cross-tolerance to A2C. Line OM-8 was previously shown to be sensitive to Pseudomonas strain F, whereas line OM-1 was tolerant of Pseudomonas strain F. Lines were maintained on MS medium containing BAP as described in Example 1.
(§3) Individual shoot tissue propagules of each clonal line were transferred to half strength hormone-free MS medium supplement with A2C. RA content and morphological abnormalities were determined as described in Example 1.

oregano clonal line OM-1 = format: cell-based; details: 30 days, ± SD
Experimental: as §1, §2, §3

oregano clonal lines [2] = assay: Selection for A2C tolerance: total phenolic content of about 100 oregano clonal lines; format: cell-based; details: small fraction of about 100 oregano lines, 200 μM A2C, 30 days
Experimental: Total phenolic content can be measured, for example, using Folin-Ciocalteu reagent essentially as described in Chandler and Dodds, Plant Cell Rep. 2:105-108 (1983) and Shetty, K., Ph.D., Thesis, University of Idaho (1989). The tissue is disrupted in 95% ethanol and centrifuged to remove particulate matter. An aliquot of the ethanol supernatant is mixed with an equal volume of Folin-Ciocalteu reagent, and incubated at 25° C. A 5% sodium carbonate can be added to stabilize color development. Absorbance of the solution is measured at 725 nm is a spectrophotometer. A standard curve is developed using various concentrations of gallic acid in 95% ethanol. Absorbance values are converted to mg total phenolics/g fresh weight (FW) tissue from the standard curve.
(§4) About 100 oregano clonal lines are initiated as described in Example 1. Lines are maintained on MS medium containing BAP as described in Example 1. At the end of a subculture cycle, 50 shoot propagules of each clonal line are transferred to half-strength hormone-free MS medium containing 200 μM A2C. Propagules are then cultured for 30 days as described in Example 1, and assayed for RA content as described in Example 1. Total phenolic content is measured as described in U.S. application Ser. No. 08/771,241, filed Dec. 20, 1996, incorporated herein by reference.

thyme clonal line T-16G = assay: RA content of shoot propagules, thyme clonal line T-16G; format: cell-based; details: thyme T-16G, 30 to 45 days, ± SD
Experimental: as §1
(§5) Three clonal thyme lines and five rosemary clonal lines were isolated and maintained in culture as described in U.S. application Ser. No. 08/771,241, filed Dec. 20, 1996 and incorporated herein by reference.
(§6) Individual shoot propagules of each clonal line were transferred to half-strength hormone-free MS media supplemented with A2C and cultured for 30 to 45 days. RA content and morphological abnormalities were determined at the end of the culture period as described in Example 1.

oregano clonal line 0-5 = assay: Morphological abnormalities / tolerance of cultured shoots, oregano line 0-5; format: cell-based; details: line 0-5, 200 μM A2C
Experimental: (§7) Pseudomonas tolerance of Pseudomonas-treated shoots was determined by visual observation with a stereomicroscope (Olympus-SZ40, Tokyo, Japan) at a magnification of 34X. Cultured shoots were evaluated for morphological abnormalities, including malformation, necrosis, and chlorophyll deficiency. The response of individual tissue propagules to Pseudomonas contact was similar within each line, i.e., there was little or no variation among tissue propagules within each line.
(§8) Shoot tissue from oregano lines 0-4 and 0-5 was also cultured in the presence of A2C for 30 days. Samples of treated and control shoots were then assayed for RA content on a fresh weight basis and for morphological abnormalities.
as §3

oregano clonal lines [3] = assay: Selection for A2C tolerance: RA content of about 100 oregano clonal lines; format: cell-based; details: small fraction of about 100 oregano lines, 200 μM A2C, 30 days
Experimental: as §1, §4

rosemary clonal line R-1 [4] = assay: RA content of shoot propagules, rosemary clonal line R-1; format: cell-based; details: 30 to 45 days
Experimental: as §1, §5, §6

[5] = test system: Glucose-6-phosphate dehydrogenase (G-6-PDH); format: cell-based, oregano; details: A2C 50 μM
Experimental: (§9) These enzymes are involved in synthesis of phenolic secondary metabolites (PAL) and in the pentose phosphate pathway (G-6-PDH).
(§10) One gm fresh weight of leaves were ground to a powder in liquid nitrogen, and homogenized in 0.1 M Tris-HCl buffer (pH 7.4) containing 1 mM phenylmethyl-sulfonyl fluoride (PMSF), 0.1% polyvinylpyrrolidone (PVP, to remove phenolics and polysaccharides) and 1 mM dithiothreitol (DTT). Extracts were centrifuged at 15,000×g for 20 minutes, and supernatants (5 ml) were partially purified through a PD 10 column (Pharmacia, Inc., NJ). Protein was eluted from the column using 5 ml of 0.1 M Tris-HCl, pH 8.5, which is close to the pH optimum of plant glucose-6-phosphate dehydrogenase (pH 8.0-8.2) and PAL (pH 8.8).
Glucose-6-phosphate dehydrogenase activity in the protein extract was measured spectrophotometrically by following the change in absorbance at 340 nm in the presence of saturating amounts of glucose-6-phosphate (2mM) and NADP (5 μM) in 0.1 M Tris-HCl, pH 8.0. One unit of glucose-6-phosphate dehydrogenase was defined as the amount of enzyme causing the reduction of 1 μmol of NADP^+ per minute. Specific activity was expressed as units per milligram of protein.

thyme clonal line M-3 = assay: Morphological abnormalities / tolerance of cultured shoots, thyme line M-3; format: cell-based; details: thyme line M-3, 200 μM A2C
Experimental: as §7, §6

[6] = test system: regenerated plants of oregano clone 0-1 and five tolerant clones; assay: Field treatment: total phenolic content of leaf tissue of regenerated oregano plants; format: in vivo; details: field plants sprayed with solution of A2C about 50 μm, Nonidet P40, EMC about 0.5% w/v; leaf tissue after 7 days; fresh weight and dry weight basis
Experimental: About 100 regenerated plants of oregano clone 0-1, and the five tolerant clones of Example 7 are removed from a greenhouse, and planted outdoors in a field during the spring, and summer growing season. Plantings are carried out using a randomized block design. Plants are fertilized weekly, but are not irrigated. About 7 days before flower emergence, half of the plants of each line are sprayed with an aqueous solution comprising A2C, Nonidet P40™, and EMC prepared from strain F. A2C is present at about 50 μm, and EMC is present at about 0.5% w/v. Each plant receives about 1 to 2 ml on the upper surface of the leaves. The remaining control plants are treated by spraying an aqueous solution that contains no A2C and no EMC. Spraying is carried out such that there is little or no carryover to adjacent plants.
After 7 days, leaf tissue from A2C-treated and control plants is harvested, and analyzed for total phenolic content, and RA content as described in Example 7. […] The plant-to-plant variation among A2C-treated plants of each line is about 5% to about 15%.

oregano clonal line OM-8 [7] = assay: Morphological abnormalities / tolerance of cultured shoots, oregano line OM-8; format: cell-based; details: line OM-8, 200 μM A2C
Experimental: as §7, §3

rosemary clonal line R-1 [8] = assay: Morphological abnormalities / tolerance of cultured shoots, rosemary line R-1; format: cell-based; details: rosemary line R-1, 200 μM A2C
Experimental: as §7, §6

oregano clonal line 0-4 = assay: Morphological abnormalities / tolerance of cultured shoots, oregano line 0-4; format: cell-based; details: line 0-4 cultured in the presence of 100 μM azetidine-2-carboxylic acid
Experimental: as §7, §8

[9] = test system: phenylalanine ammonia lyase (PAL); format: cell-based, oregano; details: A2C 50 μM
Experimental: as §9, §10
Phenylalanine ammonia-lyase (PAL) activity in the protein extract was assayed based on the conversion of L-phenylalanine (6.67 mM) to trans cinnamic acid. The reaction was carried out at 30° C. in borate buffer (33 mM), pH 8.8 with L-phenylalanine as substrate and the change in absorbance at 290 nm was measured. PAL was expressed as nanomoles of trans-cinnamic acid formed per minute per milligram of protein. Protein was determined by the Bradford dye-binding method using bovine serum albumin as a standard.

With `O=C(O)C1CCN1` (centres unmarked) [A2C, azetidine-2-carboxylic acid] the “RA Levels” value (oregano clonal line OM-8 [1]; line OM-8, A2C 100 μM, ± SD) was 2.9 ± 0.3 mg/g FW, the “RA Levels” value (oregano clonal line OM-8 [1]; line OM-8, A2C 200 μM) was “inhibited” and the “RA Levels” value (oregano clonal line OM-1; line OM-1, A2C 100 μM) was 7.1 ± 0.7 mg/g FW. For the same compound, the “RA Levels” value (oregano clonal line OM-1; line OM-1, A2C 200 μM) was 6.4 ± 1.2 mg/g FW, the “increase in total phenolic content on a fresh weight basis vs tissue cultured in the absence of A2C” value (oregano clonal lines [2]) was “at least 2 fold” and the “RA Levels” value (thyme clonal line T-16G; A2C 100 μM) was 3.1 ± 0.4 mg/g FW. The “RA Levels” value (thyme clonal line T-16G; A2C 200 μM) was 3.7 ± 0.4 mg/g FW, the “survival of line in culture” value (oregano clonal line 0-5) was “killed” and the “increase in RA content on a fresh weight basis vs tissue cultured in the absence of A2C” value (oregano clonal lines [3]) was “at least 2 fold”. The “RA Levels” value (rosemary clonal line R-1 [4]; rosemary R-1, A2C 100 μM, ± SD) was 4.9 ± 0.5 mg/g FW, the “RA Levels” value (rosemary clonal line R-1 [4]; rosemary R-1, A2C 200 μM) was “inhibited” and the G-6-PDH specific activity ([5]; 10 days of culture treatment) was 1.47 μmoles NADPH/min/mg protein. For the same compound, the G-6-PDH specific activity ([5]; 25 days of culture treatment) was 1.23 μmoles NADPH/min/mg protein, the “survival of line in culture” value (thyme clonal line M-3) was “killed” and the “total phenolics vs control tissue” value [6] was “at least 2 fold”. The “survival of line in culture” value (oregano clonal line OM-8 [7]) was “killed”, the “survival of line in culture” value (rosemary clonal line R-1 [8]) was “killed” and the morphological abnormalities (oregano clonal line 0-4) was “no morphological abnormalities”. For the same compound, the PAL specific activity ([9]; 10 days of culture treatment) was 2.83 nanomoles cinnamate/min/mg protein and the PAL specific activity ([9]; 25 days of culture treatment) was 2.64 nanomoles cinnamate/min/mg protein.
